# The source made the active and inactive calls. The calls are words filed in the database; no cut-off is given here. Where a SMILES comes first, the peptide text is derived from it. [ ]: non-standard residue; d: D form. Bip = N[C@@H](Cc1ccc(-c2ccccc2)cc1)C(=O)O
# Legend:
# [1] = system: Staphylococcus aureus; test: Antibacterial activity against Staphylococcus aureus Mu50 incubated for 20 hrs by microplate reader analysis; type: functional; conditions: Mu50, 20 h
# [2] = system: HaCaT; test: Cytotoxic activity against human HaCaT cells assessed as reduction in cell viability at 20 to 100 uM incubated for 1 hr by MTS assay; type: cell-based
# [3] = system: Staphylococcus aureus; test: Antibiofilm activity against Staphylococcus aureus Newman assessed as 24 hr preformed biofilm disruption at 3.1 to 25 uM incubated for 24 hrs by XTT assay; type: functional, organism-based
# [4] = system: Staphylococcus aureus; test: Inhibition of biofilm formation in Staphylococcus aureus clinical isolate USA300 at 3.1 to 25 uM incubated for 24 hrs by XTT/PMS assay; type: functional, organism-based
# [5] = system: Staphylococcus aureus; test: Antibiofilm activity against Staphylococcus aureus clinical isolate USA300 assessed as disruption of 72 hr-preformed biofilm at 6.2 uM incubated for 24 hrs by XTT assay in presence of 1.6 uM vancomycin; type: functional, organism-based
# [6] = system: Staphylococcus aureus; test: Antibacterial activity against Staphylococcus aureus Newman incubated for 20 hrs by microplate reader analysis; type: functional
# [7] = system: Staphylococcus aureus; test: Antibiofilm activity against Staphylococcus aureus clinical isolate USA200 assessed as 24 hr preformed biofilm disruption at 3.1 to 25 uM incubated for 24 hrs by XTT assay; type: functional, organism-based
# [8] = system: Staphylococcus aureus; test: Antibacterial activity against Staphylococcus aureus clinical isolate USA300 incubated for 20 hrs by microplate reader analysis; type: functional; conditions: isolate USA300, 20 h
# [9] = system: Staphylococcus aureus; test: Antibiofilm activity against Staphylococcus aureus clinical isolate UAMS-1 assessed as 24 hr preformed biofilm disruption at 3.1 to 25 uM incubated for 24 hrs by XTT assay; type: functional, organism-based
# [10] = system: Staphylococcus aureus; test: Antibacterial activity against Staphylococcus aureus clinical isolate USA200 incubated for 20 hrs by microplate reader analysis; type: functional; conditions: isolate USA200, 20 h
# [11] = system: Staphylococcus aureus; test: Antibiofilm activity against Staphylococcus aureus clinical isolate USA300 assessed as dead cells at 3.1 to 25 uM incubated for 24 hrs by SYTO 9/propidium iodide staining based confocal laser scanning microscopy; type: functional, organism-based
# [12] = system: Staphylococcus aureus; test: Antibacterial activity against Staphylococcus aureus clinical isolate UAMS-1 incubated for 20 hrs by microplate reader analysis; type: functional; conditions: isolate UAMS-1, 20 h
# [13] = system: Staphylococcus aureus; test: Antibiofilm activity against Staphylococcus aureus clinical isolate USA400 assessed as 24 hr preformed biofilm disruption at 3.1 to 25 uM incubated for 24 hrs by XTT assay; type: functional, organism-based
# [14] = system: Staphylococcus aureus; test: Antibiofilm activity against Staphylococcus aureus Mu50 assessed as 24 hr preformed biofilm disruption at 3.1 to 25 uM incubated for 24 hrs by XTT assay; type: functional, organism-based
# [15] = Hemolytic activity against human RBC after 1 hr by microplate reader analysis; type: ADME, cell-based, Erythrocyte; conditions: red blood cells
# [16] = system: Staphylococcus aureus; test: Antibiofilm activity against Staphylococcus aureus clinical isolate USA300 assessed as inhibition of bacterial attachment at 25 uM incubated for 1 hr by XTT/PMS assay; type: functional, organism-based
# [17] = system: Staphylococcus aureus; test: Antibiofilm activity against Staphylococcus aureus clinical isolate USA300 assessed as 24 hr preformed biofilm disruption at 3.1 to 25 uM incubated for 24 hrs by XTT assay; type: functional, organism-based
# [18] = system: Staphylococcus aureus; test: Antibacterial activity against Staphylococcus aureus clinical isolate USA400 incubated for 20 hrs by microplate reader analysis; type: functional; conditions: isolate USA400, 20 h
# [19] = system: Staphylococcus aureus; test: Antibiofilm activity against Staphylococcus aureus clinical isolate USA300 assessed as disruption of 72 hr-preformed biofilm at 6.2 uM incubated for 24 hrs by XTT assay in presence of 1.6 uM daptomycin; type: functional, organism-based
# [20] = system: Staphylococcus aureus; test: Antibiofilm activity against Staphylococcus aureus harboring fnbA mutant assessed as inhibition of bacterial attachment at 3.1 to 25 uM incubated for 24 hrs by XTT/PMS assay; type: functional, organism-based
# [21] = system: Staphylococcus aureus; test: Antibiofilm activity against Staphylococcus aureus harboring sasC mutant assessed as 24 hr preformed biofilm disruption at 3.1 to 25 uM incubated for 24 hrs by XTT assay; type: functional, organism-based
# [22] = system: Staphylococcus aureus; test: Antibiofilm activity against Staphylococcus aureus harboring sasC mutant assessed as inhibition of bacterial attachment at 3.1 to 25 uM incubated for 24 hrs by XTT/PMS assay; type: functional, organism-based
# [23] = system: Staphylococcus aureus; test: Antibiofilm activity against Staphylococcus aureus Mu50 assessed as 24 hr preformed biofilm disruption at 12.5 to 25 uM incubated for 24 hrs by XTT assay; type: functional, organism-based
# [24] = system: Staphylococcus aureus; test: Antibiofilm activity against Staphylococcus aureus clinical isolate USA400 assessed as 24 hr preformed biofilm disruption at 12.5 to 25 uM incubated for 24 hrs by XTT assay; type: functional, organism-based
# [25] = system: Staphylococcus aureus; test: Antibiofilm activity against Staphylococcus aureus clinical isolate USA300 assessed as 24 hr preformed biofilm disruption at 12.5 to 25 uM incubated for 24 hrs by XTT assay; type: functional, organism-based
# [26] = system: Staphylococcus aureus; test: Antibiofilm activity against Staphylococcus aureus JE2 assessed as 24 hr preformed biofilm disruption at 3.1 to 25 uM incubated for 24 hrs by XTT assay; type: functional, organism-based
# [27] = system: Staphylococcus aureus; test: Antibiofilm activity against Staphylococcus aureus clinical isolate UAMS-1 assessed as 24 hr preformed biofilm disruption at 12.5 to 25 uM incubated for 24 hrs by XTT assay; type: functional, organism-based
# [28] = system: Staphylococcus aureus; test: Antibiofilm activity against Staphylococcus aureus clinical isolate USA200 assessed as 24 hr preformed biofilm disruption at 12.5 to 25 uM incubated for 24 hrs by XTT assay; type: functional, organism-based
# [29] = system: Staphylococcus aureus; test: Antibiofilm activity against Staphylococcus aureus harboring […] mutant assessed as 24 hr preformed biofilm disruption at 3.1 to 25 uM incubated for 24 hrs by XTT assay; type: functional, organism-based
# [30] = system: Staphylococcus aureus; test: Antibiofilm activity against Staphylococcus aureus Newman assessed as 24 hr preformed biofilm disruption at 12.5 to 25 uM incubated for 24 hrs by XTT assay; type: functional, organism-based
# [31] = system: Staphylococcus aureus; test: Antibiofilm activity against Staphylococcus aureus JE2 assessed as inhibition of bacterial attachment at 3.1 to 25 uM incubated for 24 hrs by XTT/PMS assay; type: functional, organism-based
# [32] = system: Staphylococcus aureus; test: Antibiofilm activity against Staphylococcus aureus harboring fnbA mutant assessed as 24 hr preformed biofilm disruption at 3.1 to 25 uM incubated for 24 hrs by XTT assay; type: functional, organism-based
# [33] = system: Staphylococcus aureus; test: Antibiofilm activity against Staphylococcus aureus harboring […] mutant assessed as inhibition of bacterial attachment at 3.1 to 25 uM incubated for 24 hrs by XTT/PMS assay; type: functional, organism-based
# [34] = system: Staphylococcus aureus; test: Antibiofilm activity against Staphylococcus aureus clinical isolate USA300 assessed as inhibition of bacterial attachment at 3.1 to 25 uM incubated for 1 hr by XTT/PMS assay; type: functional, organism-based
# [35] = system: Staphylococcus aureus; test: Inhibition of biofilm formation in Staphylococcus aureus clinical isolate USA300 at 6.2 to 25 uM incubated for 24 hrs by XTT/PMS assay; type: functional, organism-based
# [36] = system: Staphylococcus aureus; test: Inhibition of biofilm formation in Staphylococcus aureus clinical isolate USA300 at 3.1 uM incubated for 24 hrs by XTT/PMS assay relative to control; type: functional; conditions: isolate USA300, 24 h
Compound,MIC [1] [µM],Activity [2],Activity [3],inhibition [4],Activity [5],MIC [6] [µM],Activity [7],MIC [8] [µM],Activity [9],MIC [10] [µM],Activity [11],MIC [12] [µM],Activity [13],Activity [14],HC50 at 1 h [15] [µM],inhibition [16],Activity [17],MIC [18] [µM],Activity [19],further results
CC[C@H](C)[C@H](NC(=O)[C@H](CCCNC(=N)N)NC(=O)[C@H](CCC(N)=O)NC(=O)[C@@H](NC(=O)[C@@H](NC(=O)[C@H](CCCNC(=N)N)NC(=O)[C@H](CCCCN)NC(=O)[C@H](Cc1ccccc1)NC(=O)CN)[C@@H](C)CC)C(C)C)C(=O)N[C@@H](CCCCN)C(=O)N[C@@H](CC(=O)O)C(=O)N[C@@H](Cc1ccccc1)C(=O)N[C@@H](CC(C)C)C(=O)N[C@@H](CCCNC(=N)N)C(=O)N[C@@H](CC(N)=O)C(=O)N[C@@H](CC(C)C)C(=O)N[C@H](C(=O)O)C(C)C (H-GFKRIVQRIKDFLRNLV-OH),1.56,Non-toxic,Active,Active,Active,1.56,Active,1.56,inactive,1.56,Active,3.1,Active,Active,120,Active,Active,1.56,Active,
CC(C)C[C@H](NC(=O)[C@H](Cc1ccc(-c2ccccc2)cc1)NC(=O)[C@H](CC(=O)O)NC(=O)[C@H](CCCCN)NC(=O)[C@H](CC(C)C)NC(=O)[C@H](CCCNC(=N)N)NC(=O)[C@H](CCC(N)=O)NC(=O)[C@@H](NC(=O)[C@H](CC(C)C)NC(=O)[C@H](CCCNC(=N)N)NC(=O)[C@H](CCCCN)NC(=O)[C@H](Cc1ccc(-c2ccccc2)cc1)NC(=O)CN)C(C)C)C(=O)N[C@@H](CCCNC(=N)N)C(=O)N[C@@H](CC(N)=O)C(=O)N[C@@H](CC(C)C)C(=O)N[C@H](C(N)=O)C(C)C (H-G[Bip]KRLVQRLKD[Bip]LRNLV-NH2),3.1,Non-toxic,,Active,Active,3.1,,3.1,,3.1,Active,3.1,,,120,Active,,3.1,Active,inhibition [20]: Active; Activity [21]: Active; inhibition [22]: Active; Activity [23]: Active; Activity [24]: Active; Activity [25]: Active; Activity [26]: Active; Activity [27]: Active; Activity [28]: Active; Activity [29]: Active; Activity [30]: Active; inhibition [31]: Active; Activity [32]: Active; inhibition [33]: Active
CC[C@H](C)[C@H](NC(=O)[C@H](CCCNC(=N)N)NC(=O)[C@H](CCC(N)=O)NC(=O)[C@@H](NC(=O)[C@@H](NC(=O)[C@@H](N)CCCNC(=N)N)[C@@H](C)CC)C(C)C)C(=O)N[C@@H](CCCCN)C(=O)N[C@@H](CC(=O)O)C(=O)N[C@@H](Cc1ccccc1)C(=O)N[C@@H](CC(C)C)C(=O)O (H-RIVQRIKDFL-OH),> 50,,inactive,inactive,,> 50,inactive,> 50,inactive,> 50,,> 50,inactive,inactive,,Active,inactive,> 50,,
CC[C@H](C)[C@H](NC(=O)[C@H](CCCCN)NC(=O)[C@H](CCC(=O)O)NC(=O)[C@H](CCCCN)NC(=O)[C@H](CO)NC(=O)[C@H](CCCCN)NC(=O)[C@H](CCCNC(=N)N)NC(=O)[C@H](Cc1ccccc1)NC(=O)[C@H](Cc1ccccc1)NC(=O)[C@H](CC(=O)O)NC(=O)CNC(=O)[C@H](CC(C)C)NC(=O)[C@@H](N)CC(C)C)C(=O)NCC(=O)N[C@@H](CCCCN)C(=O)N[C@@H](CCC(=O)O)C(=O)N[C@@H](Cc1ccccc1)C(=O)N[C@@H](CCCCN)C(=O)N[C@@H](CCCNC(=N)N)C(=O)N[C@H](C(=O)N[C@H](C(=O)N[C@@H](CCC(N)=O)C(=O)N[C@@H](CCCNC(=N)N)C(=O)N[C@H](C(=O)N[C@@H](CCCCN)C(=O)N[C@@H](CC(=O)O)C(=O)N[C@@H](Cc1ccccc1)C(=O)N[C@@H](CC(C)C)C(=O)N[C@@H](CCCNC(=N)N)C(=O)N[C@@H](CC(N)=O)C(=O)N[C@@H](CC(C)C)C(=O)N[C@H](C(=O)N1CCC[C@H]1C(=O)N[C@@H](CCCNC(=N)N)C(=O)N[C@H](C(=O)N[C@@H](CCC(=O)O)C(=O)N[C@@H](CO)C(=O)O)[C@@H](C)O)C(C)C)[C@@H](C)CC)C(C)C)[C@@H](C)CC [CATHELICIDIN],> 50,,inactive,,,> 50,inactive,12.5,inactive,> 50,,> 50,inactive,inactive,,,inactive,6.25,,inhibition [34]: inactive; inhibition [35]: inactive; inhibition at 3.1 µM [36]: 50%

# From ChEMBL document CHEMBL3779884, “Anti-Staphylococcal Biofilm Effects of Human Cathelicidin Peptides” (ACS Med Chem Lett, 2016)
